Usually Ki stands for a measure of affinity in units of concentration, obtained from inhibition or displacement.

Assay [1] deals with T1, D2 receptor (rat brain striatal membrane preparation) (Rattus norvegicus, UniProt P61169).
T1 construct: on rat brain striatal membrane preparation; from tissue; host or cells: rat brain striatum membranes
Briefly: D2 receptor binding, [3H]-spiperone. The settings on record: rat brain striatal membranes, [3H]-spiperone 0.6 nM; read-out: rD2 Ki. The method, then: D2 receptor binding assay was carried out as described by Creese et al., European Journal of Pharmacology, 60, 55-66, 1979) on rat brain striatal membrane preparation using [^3H]-spiperone (0.6 nM) as ligand. The non-specific binding was determined in the presence of 1 μM (+)-butaclamol.

Assay [2] addresses T2, rat recombinant D3 receptors (expressed in Sf9 cells) (Rattus norvegicus, UniProt P19020).
T2 construct: purchased Packard BioScience, BioSignal Packard Inc. 6110139; host or cells: Sf9 cells
Briefly: D3 receptor binding, [3H]-spiperone. The note with it: rat recombinant D3, [3H]-spiperone 0.85 nM; read-out: rD3 Ki. Here is the method:
Binding assays were carried out on rat recombinant D3 receptors (expressed in Sf9 cells) according to the supplier instructions (Packard BioScience, BioSignal Packard Inc. Cat. No. 6110139, Technical Data Sheet) using [^3H]-spiperone (0.85 nM) as ligand and haloperidol (10 μM) for determination of non-specific binding.

Assay [3] addresses Alpha-1 receptor (rat brain cortical membrane preparation). Briefly: Alpha-1 receptor binding, [3H]-prasosin. The settings on record: rat brain cortical membranes, [3H]-prasosin 0.5 nM. Here is the method:
3. Alpha-1 Receptor Binding
Alpha-1 receptor binding study was performed according to the method described by Greengrass and Bremmer (European Journal of Pharmacology 55:323-326, 1979) on rat brain cortical membrane preparation using [^3H]-prasosin (0.5 nM) as ligand. The non-specific binding was determined in the presence of 10 μM phentolamine.

Assay [4] has as its target histamine H1 (Homo sapiens, UniProt P35367). The note with it: background statement; cited from earlier work.
For assay [5], the system named is dopamine D3/D2 receptor. The settings on record: background statement; cited from earlier work.
Assay [6] concerns adrenergic receptor sites. The note with it: background statement; cited from earlier work.
Assay [7] concerns the target 5-HT2C (Homo sapiens, UniProt P28335). The note with it: background statement; cited from earlier work.

T2 sequence (P19020 whole entry): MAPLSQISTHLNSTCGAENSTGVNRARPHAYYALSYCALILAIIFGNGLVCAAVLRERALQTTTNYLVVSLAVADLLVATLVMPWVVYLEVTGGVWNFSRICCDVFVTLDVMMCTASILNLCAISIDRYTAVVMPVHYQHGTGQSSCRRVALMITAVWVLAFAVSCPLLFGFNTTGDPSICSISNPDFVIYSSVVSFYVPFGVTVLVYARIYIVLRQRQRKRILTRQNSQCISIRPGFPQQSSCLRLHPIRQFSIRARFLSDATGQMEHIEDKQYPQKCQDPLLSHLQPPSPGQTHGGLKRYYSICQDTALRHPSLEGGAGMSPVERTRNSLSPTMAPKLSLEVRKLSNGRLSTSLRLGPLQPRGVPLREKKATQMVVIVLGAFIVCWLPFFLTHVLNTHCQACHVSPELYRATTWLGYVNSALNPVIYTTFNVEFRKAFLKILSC
T1 sequence (P61169 whole entry): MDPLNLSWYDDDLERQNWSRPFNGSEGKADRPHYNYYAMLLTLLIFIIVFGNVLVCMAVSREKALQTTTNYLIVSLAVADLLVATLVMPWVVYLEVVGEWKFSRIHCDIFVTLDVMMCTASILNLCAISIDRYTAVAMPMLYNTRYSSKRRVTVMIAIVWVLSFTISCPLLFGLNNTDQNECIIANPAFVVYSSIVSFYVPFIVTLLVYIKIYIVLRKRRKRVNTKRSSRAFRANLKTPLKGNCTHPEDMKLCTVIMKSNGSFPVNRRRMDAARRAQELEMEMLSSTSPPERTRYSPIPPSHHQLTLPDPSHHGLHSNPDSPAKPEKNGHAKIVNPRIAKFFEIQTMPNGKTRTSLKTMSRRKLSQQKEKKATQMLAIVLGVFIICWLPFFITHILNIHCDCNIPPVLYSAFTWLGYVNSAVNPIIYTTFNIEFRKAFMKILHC
Sequence of 5-HT2C (P28335 33-458, species assumed): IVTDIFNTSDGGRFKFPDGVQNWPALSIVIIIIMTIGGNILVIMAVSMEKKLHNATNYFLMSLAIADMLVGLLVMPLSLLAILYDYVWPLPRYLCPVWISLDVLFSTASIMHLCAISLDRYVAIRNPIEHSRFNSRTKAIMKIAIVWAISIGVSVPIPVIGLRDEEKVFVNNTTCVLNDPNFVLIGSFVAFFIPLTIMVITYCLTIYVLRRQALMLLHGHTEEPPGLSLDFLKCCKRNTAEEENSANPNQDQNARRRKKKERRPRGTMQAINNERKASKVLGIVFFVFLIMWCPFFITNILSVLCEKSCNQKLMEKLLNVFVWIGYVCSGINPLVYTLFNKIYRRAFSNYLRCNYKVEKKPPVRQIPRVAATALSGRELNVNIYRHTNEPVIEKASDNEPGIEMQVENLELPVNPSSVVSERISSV
Sequence of histamine H1 (P35367 whole entry): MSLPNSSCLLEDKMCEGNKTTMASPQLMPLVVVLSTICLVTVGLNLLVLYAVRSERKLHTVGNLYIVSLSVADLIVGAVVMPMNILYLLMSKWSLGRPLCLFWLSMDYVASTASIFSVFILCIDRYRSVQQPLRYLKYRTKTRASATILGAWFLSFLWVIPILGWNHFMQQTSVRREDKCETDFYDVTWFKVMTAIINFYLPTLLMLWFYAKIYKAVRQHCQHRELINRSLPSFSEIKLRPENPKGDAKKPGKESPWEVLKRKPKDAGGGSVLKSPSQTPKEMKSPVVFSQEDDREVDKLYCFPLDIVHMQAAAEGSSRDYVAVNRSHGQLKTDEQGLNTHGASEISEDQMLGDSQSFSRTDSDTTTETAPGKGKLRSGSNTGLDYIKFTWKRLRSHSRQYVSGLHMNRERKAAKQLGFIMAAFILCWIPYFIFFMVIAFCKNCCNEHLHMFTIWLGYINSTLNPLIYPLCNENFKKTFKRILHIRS

Take `NC(=O)N[C@H]1CC[C@H](CCN2CCN(c3ccc(O)c(Cl)c3Cl)CC2)CC1` [Compound A, Trans-1-{4-[2-[4-(2,3-dichloro-4-hydroxy-phenyl)-piperazin-1-yl]-ethyl]-cyclohexyl}-urea]: the Ki in assay [1] was 8.4 nM; in assay [2], 0.26 nM; in assay [3], over 1000 nM.

Consider `CN(C)C(=O)NC1CCC(CCN2CCN(c3cccc(Cl)c3Cl)CC2)CC1.Cl` (stereo not drawn) [trans-4-{2-[4-(2,3-dichlorophenyl)-piperazin-1-yl]-ethyl}-N,N-dimethylcarbamoyl-cyclohexylamine hydrochloride], for which the “potency at histamine H1 receptor site” value in assay [4] was “low potency”. Further, in assay [5], the “D3 receptor antagonism relative to D2 receptor antagonism” value is given as “about one order of magnitude greater”. Also, the “potency at adrenergic receptor sites” value in assay [6] is given as “low potency”. For the same molecule, the “potency at 5-HT2C receptor site” value in assay [7] was “low potency”.

Regarding `CN(C)C(=O)N[C@H]1CC[C@H](CCN2CCN(c3ccc(O)c(Cl)c3Cl)CC2)CC1` [Compound C, Trans-1-{4-[2-[4-(2,3-dichloro-4-hydroxy-phenyl)-piperazin-1-yl]-ethyl]-cyclohexyl}-3,3-dimethyl-urea], the Ki in assay [1] was 80.5 nM; in assay [2] it was 0.37 nM; in assay [3] it was over 1000 nM.

Regarding `CN(C)C(=O)N[C@H]1CC[C@H](CC[N+]2([O-])CCN(c3cccc(Cl)c3Cl)CC2)CC1` [Compound D, Trans-1-{4-[2-[4-(2,3-dichlorophenyl)-1-oxo-piperazin-1-yl]-ethyl]-cyclohexyl}-3,3-dimethyl-urea], the Ki in assay [1] is over 100 nM; in assay [2], over 10 nM; in assay [3] it was over 1000 nM.

With `CNC(=O)N[C@H]1CC[C@H](CCN2CCN(c3ccc(O)c(Cl)c3Cl)CC2)CC1` [Compound B, Trans-1-{4-[2-[4-(2,3-dichloro-4-hydroxy-phenyl)-piperazin-1-yl]-ethyl]-cyclohexyl}-3-methyl-urea], the Ki in assay [1] was 2.49 nM; in assay [2], 0.24 nM; in assay [3], over 1000 nM.

Source of the values: US8765765B2, “Metabolites of (thio) carbamoyl-cyclohexane derivatives” (Richter Gedeon Nyrt., priority 2007, dated 2014).
